pIC50: −log10 of the molar value.
Target: TRKA (Homo sapiens (Human), UniProt P04629)
Assay: Isolated TRK enzyme assay (HTRF KinEASE-TK), TRKA
Format: biochemical
Details: read-out: Trka enzyme (IC50)

Sequence of TRKA (P04629 441-796): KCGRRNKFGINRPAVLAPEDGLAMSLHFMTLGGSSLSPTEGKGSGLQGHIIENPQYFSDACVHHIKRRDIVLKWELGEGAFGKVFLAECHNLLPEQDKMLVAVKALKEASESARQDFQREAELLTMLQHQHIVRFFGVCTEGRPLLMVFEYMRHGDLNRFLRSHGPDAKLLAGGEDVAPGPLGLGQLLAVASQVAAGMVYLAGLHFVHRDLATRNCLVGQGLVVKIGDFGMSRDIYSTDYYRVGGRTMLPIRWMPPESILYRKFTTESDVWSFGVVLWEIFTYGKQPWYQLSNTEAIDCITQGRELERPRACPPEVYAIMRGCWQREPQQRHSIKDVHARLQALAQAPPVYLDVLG

Row | SMILES | pIC50
1 | CC(C)n1cc(C(=O)c2cncc(NC(=O)Cc3cnn(C4CC4)c3C(F)(F)F)c2)c2cncnc21 [Example 315, 2-(1-Cyclopropyl-5-trifluoromethyl-1H-pyrazol-4-yl)-N-[5-(7-isopropyl-7H-pyrrolo[2,3-d]pyrimidine-5-carbonyl)-pyridin-3-yl]-acetamide] | 7.41
2 | CC(C)n1cc(C(=O)c2cncc(NC(=O)Cc3cnc4ncnn4c3)c2)c2cncnc21 [Example 375, N-[5-(7-Isopropyl-7H-pyrrolo[2,3-d]pyrimidine-5-carbonyl)-pyridin-3-yl]-2-[1,2,4]triazolo[1,5-a]pyrimidin-6-yl-acetamide] | 5.01
3 | Cc1cccc2ncn(CC(=O)Nc3cncc(C(=O)c4cn(C(C)C)c5ncncc45)c3)c12 [Example 131, N-{5-[(7-isopropyl-7H-pyrrolo[2,3-d]pyrimidin-5-yl)carbonyl]pyridin-3-yl}-2-(7-methyl-1H-benzimidazol-1-yl)acetamide] | 6.08
4 | CC(C)n1cc(C(=O)c2cncc(NC(=O)Cc3nn(C)c4cc(Cl)ccc34)c2)c2cncnc21 [Example 147, 2-(6-chloro-1-methyl-1H-indazol-3-yl)-N-{5-[(7-isopropyl-7H-pyrrolo[2,3-d]pyrimidin-5-yl)carbonyl]pyridin-3-yl}acetamide] | 7.12
5 | COc1nccn2cc(C(=O)Nc3cncc(C(=O)c4cn(C(C)C)c5ncncc45)c3)nc12 [Example 488, 8-Methoxy-imidazo[1,2-a]pyrazine-2-carboxylic acid [5-(7-isopropyl-7H-pyrrolo[2,3-d]pyrimidine-5-carbonyl)-pyridin-3-yl]-amide] | 7.19
6 | CC1(n2cc(C(=O)c3cncc(NC(=O)Cn4ccc(C(F)(F)F)n4)c3)c3cncnc32)COC1 [Example 311, N-(5-{[7-(3-methyloxetan-3-yl)-7H-pyrrolo[2,3-d]pyrimidin-5-yl]carbonyl}pyridin-3-yl)-2-[3-(trifluoromethyl)-1H-pyrazol-1-yl]acetamide] | 6.62
7 | CCc1ccnc(C(=O)Nc2cncc(C(=O)c3cn(C(C)C)c4ncncc34)c2)c1 [Example 445, 4-Ethyl-pyridine-2-carboxylic acid [5-(7-isopropyl-7H-pyrrolo[2,3-d]pyrimidine-5-carbonyl)-pyridin-3-yl]-amide] | 8.26
8 | Cn1cc(C(=O)c2cncc(NC(=O)CCc3ccccc3Cl)c2)c2cncnc21 [Example 198, 3-(2-chlorophenyl)-N-{5-[(7-methyl-7H-pyrrolo[2,3-d]pyrimidin-5-yl)carbonyl]pyridin-3-yl}propanamide] | 5.63
9 | Cc1ccc(CC(=O)Nc2cncc(C(=O)c3cn(C(C)(C)CO)c4nc(N)ncc34)c2)nc1 [Example 556, N-{5-[2-Amino-7-(2-hydroxy-1,1-dimethyl-ethyl)-7H-pyrrolo[2,3-d]pyrimidine-5-carbonyl]-pyridin-3-yl}-2-(5-methyl-pyridin-2-yl)-acetamide] | 8.50
10 | CC(C)n1cc(C(=O)c2cncc(NC(=O)CN3Cc4ccc(F)cc4C3=O)c2)c2cncnc21 [Example 78, 2-(6-fluoro-1-oxo-1,3-dihydro-2H-isoindol-2-yl)-N-{5-[(7-isopropyl-7H-pyrrolo[2,3-d]pyrimidin-5-yl)carbonyl]pyridin-3-yl}acetamide] | 6.69
11 | CC(C)n1cc(C(=O)c2cncc(NC(=O)c3cc4ccccn4n3)c2)c2cncnc21 [Example 501, Pyrazolo[1,5-a]pyridine-2-carboxylic acid [5-(7-isopropyl-7H-pyrrolo[2,3-d]pyrimidine-5-carbonyl)-pyridin-3-yl]-amide] | 6.70
12 | CC(C)n1cc(C(=O)c2cncc(NC(=O)c3cnccc3C(F)(F)F)c2)c2cncnc21 [Example 451, N-[5-(7-Isopropyl-7H-pyrrolo[2,3-d]pyrimidine-5-carbonyl)-pyridin-3-yl]-4-trifluoromethyl-nicotinamide] | 5.14
13 | CC1(n2cc(C(=O)c3cncc(NC(=O)Cc4cccc(C(F)(F)F)c4)c3)c3cncnc32)COC1 [Example 572, N-{5-[7-(3-Methyl-oxetan-3-yl)-7H-pyrrolo[2,3-d]pyrimidine-5-carbonyl]-pyridin-3-yl}-2-(3-trifluoromethyl-phenyl)-acetamide] | 8.02
14 | Cn1cc(C(=O)c2cncc(NC(=O)CCc3cccnc3)c2)c2cncnc21 [Example 322, N-{5-[(7-methyl-7H-pyrrolo[2,3-d]pyrimidin-5-yl)carbonyl]pyridin-3-yl}-3-(pyridin-3-yl)propanamide] | 5.01
15 | CC(C)n1cc(C(=O)c2cncc(NC(=O)Cc3n[nH]c4ccccc34)c2)c2cncnc21 [Example 144, 2-(1H-indazol-3-yl)-N-{5-[(7-isopropyl-7H-pyrrolo[2,3-d]pyrimidin-5-yl)carbonyl]pyridin-3-yl}acetamide] | 7.15
16 | CC(C)n1cc(C(=O)c2cncc(NC(=O)Nc3cc(C4CC4)nn3-c3cnn(C)c3)c2)c2cncnc21 [Example 526, 1-(3-Cyclopropyl-1′-methyl-1′H-[1,4′]bipyrazolyl-5-yl)-3-[5-(7-isopropyl-7H-pyrrolo[2,3-d]pyrimidine-5-carbonyl)-pyridin-3-yl]-urea] | 8.82

Row | SMILES | pIC50
17 | CC(CO)(CO)n1cc(C(=O)c2cncc(NC(=O)Cc3cccc(C(F)(F)F)c3)c2)c2cncnc21 [Example 238, N-[5-({7-[2-hydroxy-1-(hydroxymethyl)-1-methylethyl]-7H-pyrrolo[2,3-d]pyrimidin-5-yl}carbonyl)pyridin-3-yl]-2-[3-(trifluoromethyl)phenyl]acetamide] | 8.03
18 | CC1(n2cc(C(=O)c3cncc(NC(=O)Cc4ccc(Cl)cc4)c3)c3cncnc32)COC1 [Example 309, 2-(4-chlorophenyl)-N-(5-{[7-(3-methyloxetan-3-yl)-7H-pyrrolo[2,3-d]pyrimidin-5-yl]carbonyl}pyridin-3-yl)acetamide] | 7.27
19 | CC(C)(CO)n1cc(C(=O)c2cncc(NC(=O)Cc3ncc(F)cc3F)c2)c2cnc(N)nc21 [Example 555, N-{5-[2-Amino-7-(2-hydroxy-1,1-dimethyl-ethyl)-7H-pyrrolo[2,3-d]pyrimidine-5-carbonyl]-pyridin-3-yl}-2-(3,5-difluoro-pyridin-2-yl)-acetamide] | 6.82
20 | CC(C)c1ccnn1CC(=O)Nc1cncc(C(=O)c2cn(C(C)C)c3ncncc23)c1 [Example 366, 2-(5-Isopropyl-pyrazol-1-yl)-N-[5-(7-isopropyl-7H-pyrrolo[2,3-d]pyrimidine-5-carbonyl)-pyridin-3-yl]-acetamide] | 6.45
21 | CC(C)n1cc(C(=O)c2cncc(NC(=O)c3ccc(C#N)nc3)c2)c2cncnc21 [Example 473, 6-Cyano-N-[5-(7-isopropyl-7H-pyrrolo[2,3-d]pyrimidine-5-carbonyl)-pyridin-3-yl]-nicotinamide] | 5.14
22 | CC(C)n1cc(C(=O)c2cncc(NC(=O)Cn3cc(C4(O)CCCC4)nn3)c2)c2cncnc21 [Example 363, 2-[4-(1-Hydroxy-cyclopentyl)-1,2,3-triazol-1-yl]-N-[5-(7-isopropyl-7H-pyrrolo[2,3-d]pyrimidine-5-carbonyl)-pyridin-3-yl]-acetamide] | 5.99
23 | Cn1cc(C(=O)c2cncc(NC(=O)CCc3ccc(F)cc3)c2)c2cncnc21 [Example 328, 3-(4-fluorophenyl)-N-{5-[(7-methyl-7H-pyrrolo[2,3-d]pyrimidin-5-yl)carbonyl]pyridin-3-yl}propanamide] | 5.51
24 | CC(C)n1cc(C(=O)c2cncc(NC(=O)c3nncc4ccccc34)c2)c2cncnc21 [Example 470, Phthalazine-1-carboxylic acid [5-(7-isopropyl-7H-pyrrolo[2,3-d]pyrimidine-5-carbonyl)-pyridin-3-yl]-amide] | 6.78
25 | CC(C)n1cc(C(=O)c2cncc(NC(=O)Cn3ccc(-c4ccccn4)n3)c2)c2cncnc21 [Example 79, N-{5-[(7-isopropyl-7H-pyrrolo[2,3-d]pyrimidin-5-yl)carbonyl]pyridin-3-yl}-2-(3-pyridin-2-yl-1H-pyrazol-1-yl)acetamide] | 5.80
26 | CC(C)n1cc(C(=O)c2cncc(NC(=O)c3cc4occc4cn3)c2)c2cncnc21 [Example 455, Furo[3,2-c]pyridine-6-carboxylic acid [5-(7-isopropyl-7H-pyrrolo[2,3-d]pyrimidine-5-carbonyl)-pyridin-3-yl]-amide] | 5.97
27 | Cn1cc(C(=O)c2cncc(NC(=O)Cc3ccc(-c4ccccc4)cc3)c2)c2cncnc21 [Example 183, 2-biphenyl-4-yl-N-{5-[(7-methyl-7H-pyrrolo[2,3-d]pyrimidin-5-yl)carbonyl]pyridin-3-yl}acetamide] | 5.73
28 | CC(C)n1cc(C(=O)c2cncc(NC(=O)c3noc4c3CCCC4)c2)c2cncnc21 [Example 416, 4,5,6,7-Tetrahydro-1,2-benzisoxazole-3-carboxylic acid [5-(7-isopropyl-7H-pyrrolo[2,3-d]pyrimidine-5-carbonyl)-pyridin-3-yl]-amide] | 7.28
29 | COCC(C)(C)n1cc(C(=O)c2cncc(NC(=O)Cn3cc(C4CC4)nn3)c2)c2cnc(N)nc21 [Example 552, N-{5-[2-Amino-7-(2-methoxy-1,1-dimethyl-ethyl)-7H-pyrrolo[2,3-d]pyrimidine-5-carbonyl]-pyridin-3-yl}-2-(4-cyclopropyl-[1,2,3]triazol-1-yl)-acetamide] | 8.12
30 | COc1cc(F)cc2ccn(CC(=O)Nc3cncc(C(=O)c4cn(C(C)C)c5ncncc45)c3)c12 [Example 145, 2-(5-fluoro-7-methoxy-1H-indol-1-yl)-N-{5-[(7-isopropyl-7H-pyrrolo[2,3-d]pyrimidin-5-yl)carbonyl]pyridin-3-yl}acetamide] | 7.43
31 | CSc1ncc(CC(=O)Nc2cncc(C(=O)c3cn(C(C)C)c4ncncc34)c2)cn1 [Example 164, N-{5-[(7-isopropyl-7H-pyrrolo[2,3-d]pyrimidin-5-yl)carbonyl]pyridin-3-yl}-2-[2-(methylthio)pyrimidin-5-yl]acetamide] | 6.88
32 | CC(C)n1cc(C(=O)c2cncc(NC(=O)c3cnc4ccccc4c3)c2)c2cncnc21 [Example 398, Quinoline-3-carboxylic acid [5-(7-isopropyl-7H-pyrrolo[2,3-d]pyrimidine-5-carbonyl)-pyridin-3-yl]-amide] | 6.86

From US8846698B2, “Pyrrolo[2,3-d]pyrimidine tropomysin-related kinase inhibitors” (Pfizer Limited, priority 2011, dated 2014)
